A value given as a limit tells only on which side of the number the result lay.

This test deals with human Edg-2 receptor (LPA1 receptor) (Homo sapiens, UniProt Q92633). Put plainly: Edg-2 receptor inhibition by FLIPR calcium fluorescence measurement (LPA-mediated calcium liberation). In kind it is cell-based. As to conditions: CHO cells stably overexpressing human Edg-2 receptor; LPA 18:1 100 nM; fluo-4 fluorescence; triplicate; read-out: Inhibitory concentrations IC50 for inhibition of the Edg-2 receptor. In a few lines: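 CHO cells stably overexpressing human Edg-2 were fluo-4 loaded and pre-incubated ~5 min with compound (≤0.3% DMSO) in HBSS/HEPES/probenecid, pH 7.5. Then LPA 18:1 at 100 nM final was added. Peak calcium fluorescence over ~3 min, baseline-corrected versus DMSO, gave % inhibition in triplicate and IC50.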
Sequence of human Edg-2 receptor (LPA1 receptor) (Q92633 whole entry): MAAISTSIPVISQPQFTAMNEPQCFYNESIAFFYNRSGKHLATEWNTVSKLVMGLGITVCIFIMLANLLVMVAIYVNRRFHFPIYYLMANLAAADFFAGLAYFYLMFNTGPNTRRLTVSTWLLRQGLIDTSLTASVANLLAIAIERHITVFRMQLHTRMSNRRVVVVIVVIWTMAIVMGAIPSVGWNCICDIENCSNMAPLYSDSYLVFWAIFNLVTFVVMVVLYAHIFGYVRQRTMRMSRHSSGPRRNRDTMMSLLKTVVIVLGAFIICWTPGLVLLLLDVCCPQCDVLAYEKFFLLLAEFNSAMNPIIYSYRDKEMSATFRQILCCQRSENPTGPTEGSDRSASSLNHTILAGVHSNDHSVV
Take `O=C(NC1(C(=O)O)Cc2ccccc2C1)c1ccc(C(F)(F)F)c(OCCc2cc(F)ccc2F)c1` [Example 188]: the IC50 is under 100 nM.
Turning to `O=C(NC1(C(=O)O)Cc2ccccc2C1)c1ccc(C(F)(F)F)c(OCCc2cc(Cl)ccc2F)c1` [Example 189], the IC50 was under 100 nM.
For the compound `Cc1nccnc1CCOc1cc(C(=O)NC2(C(=O)O)Cc3ccccc3C2)ccc1C(F)(F)F` [Example 190], the IC50 lay in the range of 1000 to 30000 nM.
As to `O=C(NC1(C(=O)O)Cc2ccccc2C1)c1ccc(C(F)(F)F)c(OCCc2cc(C(F)(F)F)ccc2F)c1` [Example 191], the IC50 was under 100 nM.
With `Cc1ccc(F)c(CCOc2cc(C(=O)NC3(C(=O)O)Cc4ccccc4C3)ccc2C(F)(F)F)c1` [Example 192], the IC50 is under 100 nM.
Turning to `COc1ccc(C(=O)NC2(C(=O)O)Cc3ccccc3C2)cc1OCCc1cc(Cl)ccc1F` [Example 193, 2-{3-[2-(5-Chloro-2-fluoro-phenyl)-ethoxy]-4-methoxy-benzoylamino}-indane-2-carboxylic acid], the IC50 is under 100 nM.
To `COc1ccc(C(=O)NC2(C(=O)O)Cc3ccccc3C2)cc1C#Cc1ccc(C(F)(F)F)cc1` [Example 194, 2-[4-Methoxy-3-(4-trifluoromethyl-phenylethynyl)-benzoylamino]-indane-2-carboxylic acid] belongs 1000 to 30000 nM.
For the compound `COc1ccc(C(=O)NC2(C(=O)O)Cc3ccccc3C2)cc1C#Cc1ccc(C(C)(C)C)cc1` [Example 195, 2-[3-(4-tert-Butyl-phenylethynyl)-4-methoxy-benzoylamino]-indane-2-carboxylic acid], the IC50 is 100 to 1000 nM.
To `COc1ccc(C(=O)NC2(C(=O)O)Cc3ccccc3C2)cc1-c1cccc(C(C)C)c1` [Example 196, 2-[(3′-Isopropyl-6-methoxy-biphenyl-3-carbonyl)-amino]-indane-2-carboxylic acid] belongs under 100 nM; to `COc1ccc(C(=O)NC2(C(=O)O)Cc3ccccc3C2)cc1-c1ccc(CC(C)C)cc1` [Example 197], 1000 to 30000 nM.
To `COc1ccc(C(=O)NC2(C(=O)O)Cc3ccccc3C2)cc1-c1cccc(Cl)c1` [Example 198] belongs under 100 nM; to `COc1ccc(C(=O)NC2(C(=O)O)Cc3ccccc3C2)cc1-c1cccc(CC#N)c1` [Example 199, 2-[(3′-cyanomethyl-6-methoxy-biphenyl-3-carbonyl)-amino]-indane-2-carboxylic acid], under 100 nM.
For `COc1ccc(C(=O)NC2(C(=O)O)Cc3ccccc3C2)cc1-c1cccc(C(F)(F)F)c1` [Example 200], the IC50 is under 100 nM.
As to `COc1ccc(C(=O)NC2(C(=O)O)Cc3ccccc3C2)cc1-c1ccc(C(C)(C)C)cc1` [Example 201], the IC50 fell in the range of 1000 to 30000 nM.
As to `CCc1cccc(-c2cc(C(=O)NC3(C(=O)O)Cc4ccccc4C3)ccc2OC)c1` [Example 202], the IC50 was under 100 nM.
Regarding `COc1ccc(C(=O)NC2(C(=O)O)Cc3ccccc3C2)cc1-c1cccc(NS(=O)(=O)N(C)C)c1` [Example 203], the IC50 was under 100 nM.
As to `COc1ccc(C(=O)NC2(C(=O)O)Cc3ccccc3C2)cc1OCCc1cc(F)ccc1F` [Example 204, 2-{3-[2-(2,5-Difluoro-phenyl)-ethoxy]-4-methoxy-benzoylamino}-indane-2-carboxylic acid], the IC50 is under 100 nM.
Turning to `CCc1ccc(CCOc2cc(C(=O)NC3(C(=O)O)Cc4ccccc4C3)ccc2OC)nc1` [Example 205, 2-{3-[2-(5-Ethyl-pyridin-2-yl)-ethoxy]-4-methoxy-benzoylamino}-indane-2-carboxylic acid], the IC50 lay within 1000 to 30000 nM.
Consider `COc1ccc(C(=O)NC2(C(=O)O)Cc3ccccc3C2)cc1OCCc1scnc1C` [Example 206, 2-{4-Methoxy-3-[2-(4-methyl-thiazol-5-yl)-ethoxy]-benzoylamino}-indane-2-carboxylic acid], for which the IC50 lay in the range of 1000 to 30000 nM.
In the case of `COc1ccc(C(=O)NC2(C(=O)O)Cc3nccnc3C2)cc1OCCc1cccc(C)c1` [Example 207, 6-[4-Methoxy-3-(2-m-tolyl-ethoxy)-benzoylamino]-6,7-dihydro-5H-cyclopentapyrazine-6-carboxylic acid], the IC50 fell in the range of 1000 to 30000 nM.
To `COc1ncc(C(=O)NC2(C(=O)O)Cc3ccccc3C2)cc1OCCc1cccc(C)c1` [Example 208, 2-{[6-Methoxy-5-(2-m-tolyl-ethoxy)-pyridine-3-carbonyl]-amino}-indane-2-carboxylic acid] belongs under 100 nM.
Consider `COc1ccc(C(=O)NC2(C(=O)O)Cc3ccccc3C2C)cc1OCCc1cccc(C)c1` (stereo not shown) [Example 209, 2-[4-Methoxy-3-(2-m-tolyl-ethoxy)-benzoylamino]-1-methyl-indane-2-carboxylic acid], for which the IC50 was under 100 nM.
As for `COc1ccc(C(=O)NC2(C(=O)O)Cc3ccccc3C2)cc1OCCc1cccc(C(C)(CO)CO)c1` [Example 210, 2-(3-{2-[3-(2-Hydroxy-1-hydroxymethyl-1-methyl-ethyl)-phenyl]-ethoxy}-4-methoxy-benzoylamino)-indane-2-carboxylic acid], the IC50 lay within 100 to 1000 nM.
Take `COc1ccc(C(=O)NC2(C(=O)O)CC3CCCCC3C2)cc1OCCc1cccc(C)c1` (stereo not shown) [Example 211, 2-[4-Methoxy-3-(2-m-tolyl-ethoxy)-benzoylamino]-octahydro-indene-2-carboxylic acid]: the IC50 was under 100 nM.
With `COc1ccc(C(=O)NC2(C(=O)O)Cc3ccccc3C2)cc1OCC(F)(F)c1cccc(Cl)c1` [Example 212, 2-{3-[2-(3-Chloro-phenyl)-2,2-difluoro-ethoxy]-4-methoxy-benzoylamino}-indane-2-carboxylic acid], the IC50 was under 100 nM.
For `COc1ccc(C(=O)NC2(C(=O)O)Cc3ccccc3C2)cc1OCC(F)(F)c1ccccc1` [Example 213, 2-[3-(2,2-Difluoro-2-phenyl-ethoxy)-4-methoxy-benzoylamino]-indane-2-carboxylic acid], the IC50 is under 100 nM.
Take `COc1ccc(C(=O)NC2(C(=O)O)Cc3c(F)ccc(F)c3C2)cc1OCCc1cccc(C)c1` [Example 214, 4,7-Difluoro-2-[4-methoxy-3-(2-m-tolyl-ethoxy)-benzoylamino]-indane-2-carboxylic acid]: the IC50 was under 100 nM.
To `COc1ccc(C(=O)NC2(C(=O)O)Cc3cccc(F)c3C2)cc1OCCc1cccc(C)c1` (stereo not shown) [Example 215, 4-Fluoro-2-[4-methoxy-3-(2-m-tolyl-ethoxy)-benzoylamino]-indane-2-carboxylic acid] belongs under 100 nM.
Turning to `COc1ccc(C(=O)NC2(C(=O)O)Cc3cccc(C)c3C2)cc1OCCc1cccc(C)c1` (stereo not shown) [Example 216, 2-[4-Methoxy-3-(2-m-tolyl-ethoxy)-benzoylamino]-4-methyl-indane-2-carboxylic acid], the IC50 was under 100 nM.
To `COc1ccc(C(=O)NC2(C(=O)O)Cc3cccc(Cl)c3C2)cc1OCCc1cccc(C)c1` (stereo not shown) [Example 217, 4-Chloro-2-[4-methoxy-3-(2-m-tolyl-ethoxy)-benzoylamino]-indane-2-carboxylic acid] belongs under 100 nM.
Consider `COc1ccc(C(=O)NC2(C(=O)O)Cc3ccc(C#N)cc3C2)cc1OCCc1cccc(C)c1` (stereo not shown) [Example 218, 5-Cyano-2-[4-methoxy-3-(2-m-tolyl-ethoxy)-benzoylamino]-indane-2-carboxylic acid], for which the IC50 is under 100 nM.
